Test results: patent publication US10017403B2, “Use of peracetic acid/hydrogen peroxide and peroxide-reducing enzymes for treatment of drilling fluids, frac fluids, flowback water and disposal water” (ECOLAB USA INC., priority 2012, dated 2018)

Assays:
fracking water mixtures [1] = assay: Micro efficacy: POAA dosed for 30 ppm residual versus POAA pretreated with catalase (Example 8); format: cell-based; details: no holding tank treatment
Protocol: A micro efficacy comparison of POAA added at levels to target 30 ppm POAA residuals at 5 minutes versus POAA pretreated with catalase was conducted as set forth in Table 12.

[2] = Titration of POAA consumption in water mixtures (Example 6); format: physicochemical
fracking water mixtures [3] = assay: Micro efficacy in fracking water mixtures, baseline without catalase (Example 3); format: cell-based
Protocol: The impact of water pretreatment with 500 ppm of the EnviroSan product (75 ppm POAA) on micro efficacy in various fracking water mixtures were evaluated. The example represents a baseline data set of various water treatment options according to the invention. Table 2 and FIG. 3 show the average log reduction in various slick water treatments with varying ppm PAA (without any catalase treatment or pretreatment), representing a baseline data set.

[4] = test system: Pseudomonas aeruginosa ATCC 15442; assay: Micro efficacy at 30 ppm POAA with or without catalase, with or without water pretreatment (Example 7); format: cell-based; details: no holding tank pretreatment, 30 ppm PAA
Protocol: All water mixtures were treated with an initial concentration of 30 ppm POAA EnviroSan, both with and without the addition of catalase. The data set evaluates whether there is a significant difference in micro activity generated between treatments of EnviroSan alone vs. EnviroSan pre-reduced with catalase.
All ratios of fracking water mixtures tested (100/0, 90/10, 80/20 & 70/30) were freshly mixed solutions, as well as solutions mixed and pretreated with 500 ppm EnviroSan product more than 1 hour before the start of the micro evaluation, in order to observe if a pretreatment step is of value for micro performance compared to those mixtures not pretreated. The test system (P. aeruginosa and natural water) described in Example 5 was again utilized. Water mixtures as outlined in Table 9 were provided (showing the percentage of 100 mL of each water sample type).
The testing methods of Example 5 were utilized for the chemically treated water samples, differing only in the combination of the 10 mL inoculated water mixtures with appropriate volumes of the EnviroSan with or without catalase to achieve 30 ppm POAA residual to each test tube in timed intervals and mixed. The methods of Example 5 were employed to make the EnviroSan with catalase stock solutions. In comparison, for the water samples that were not chemically treated, 9.9 mL of test water mixture was dispensed into 2 individual test tubes. 0.10 mL of an approximate 10^8 CFU/mL culture of P. aeruginosa was added in timed intervals and mixed thoroughly. Then 1 mL samples were neutralized in 9 mL of 0.5% sodium thiosulfate, followed by serial dilution and enumeration after 2.5 minutes, 5 minutes and 60 minute exposure times.
Table 11C show the use of 30 ppm POAA with/without catalase treatment compared for micro performance at both 2.5 and 5.0 minutes exposure times. Upon addition of 10-30% reuse water a defined drop in antimicrobial performance was observed over both 2.5 and 5 minutes as peracid was rapidly consumed if not pretreated with catalase. A residual of 30 ppm POAA at 5 minutes was needed to achieve the desired antimicrobial performance.

[5] = Catalase amount needed in POAA treated water, iodometric titration (Example 15); format: biochemical
Protocol: Field of use applications were analyzed to determine the amount of a peroxide-reducing enzyme necessary to obtain desired concentrations of both peracid and hydrogen peroxide in a treated water source. EnviroSan (POAA) peracid composition was added to water to reach the targeted POAA concentrations set forth in Table 18, and the concentration of both POAA and H2O2 were confirmed by iodometric titration. Then catalase (ES2000) was added to the solution, and the sample was stored under ambient conditions. The concentration of POAA and H2O2 were monitored by the iodometric conditions.

[6] = catalase 0.5 ppm, time 0 hr, series starting 14.6 ppm POAA, EnviroSan in water, ambient
[7] = catalase 0.5 ppm, time 0 hr, series starting 31.1 ppm POAA
[8] = catalase 0.5 ppm, time 1 hr, series starting 14.6 ppm POAA
[9] = catalase 0.5 ppm, time 1 hr, series starting 31.1 ppm POAA
[10] = catalase 0.5 ppm, time 2 hr, series starting 14.6 ppm POAA
[11] = catalase 0.5 ppm, time 2 hr, series starting 31.1 ppm POAA
[12] = catalase 0.5 ppm, time 3.6 hr, series starting 14.6 ppm POAA
[13] = catalase 0.5 ppm, time 3.6 hr, series starting 31.1 ppm POAA
[14] = catalase 1.0 ppm, time 0 hr, series starting 14.8 ppm POAA
[15] = catalase 1.0 ppm, time 0 hr, series starting 30.1 ppm POAA
[16] = catalase 1.0 ppm, time 1 hr, series starting 14.8 ppm POAA
[17] = catalase 1.0 ppm, time 1 hr, series starting 30.1 ppm POAA
[18] = catalase 1.0 ppm, time 2 hr, series starting 14.8 ppm POAA
[19] = catalase 1.0 ppm, time 2 hr, series starting 30.1 ppm POAA
[20] = catalase 1.0 ppm, time 3.6 hr, series starting 14.8 ppm POAA
[21] = catalase 1.0 ppm, time 3.6 hr, series starting 30.1 ppm POAA

For `CC(=O)OO` [POAA, peracetic acid], which “Avg. Log10 Reduction” value (fracking water mixtures [1]; 10% reuse H2O, 46 ppm PAA, 2.5 minutes) is on record?
The value was 4.32 Log10.

And the “Avg. Log10 Reduction” value (fracking water mixtures [1]; 10% reuse H2O, 46 ppm PAA, 5 minutes)?
The value was 4.72 Log10.

And the “Avg. Log10 Reduction” value (fracking water mixtures [1]; 20% reuse H2O, 86 ppm PAA, 2.5 minutes)?
The value was 4.57 Log10.

What about the “Avg. Log10 Reduction” value (fracking water mixtures [1]; 20% reuse H2O, 86 ppm PAA, 5 minutes) of the same compound?
Its value is 4.64 Log10.

What about the “Avg. Log10 Reduction” value (fracking water mixtures [1]; 30% reuse H2O, 138 ppm PAA, 2.5 minutes) of the same compound?
Its value is 4.12 Log10.

What about the “Avg. Log10 Reduction” value (fracking water mixtures [1]; 30% reuse H2O, 138 ppm PAA, 5 minutes) of the same compound?
The value was 5.00 Log10.

And the “Actual Titrated Concentration (ppm POAA)” value ([2]; 70% Fresh/30% Produced, desired 30 ppm POAA, 1 minutes)?
The value was 7 ppm.

And the “Actual Titrated Concentration (ppm POAA)” value ([2]; 70% Fresh/30% Produced, desired 30 ppm POAA, 5 minutes)?
The value was 0 ppm.

And the “Actual Titrated Concentration (ppm POAA)” value ([2]; 70% Fresh/30% Produced, desired 40 ppm POAA, 1 minutes)?
The value was 12 ppm.

What about the “Actual Titrated Concentration (ppm POAA)” value ([2]; 70% Fresh/30% Produced, desired 40 ppm POAA, 5 minutes) of the same compound?
The value was 0 ppm.

What about the “Actual Titrated Concentration (ppm POAA)” value ([2]; 80% Fresh/20% Produced, desired 30 ppm POAA, 1 minutes) of the same compound?
The value was 13 ppm.

And the “Actual Titrated Concentration (ppm POAA)” value ([2]; 80% Fresh/20% Produced, desired 30 ppm POAA, 5 minutes)?
The value was 0 ppm.

What about the “Actual Titrated Concentration (ppm POAA)” value ([2]; 80% Fresh/20% Produced, desired 40 ppm POAA, 1 minutes) of the same compound?
Its value is 21 ppm.

What about the “Actual Titrated Concentration (ppm POAA)” value ([2]; 80% Fresh/20% Produced, desired 40 ppm POAA, 5 minutes) of the same compound?
The value was 2 ppm.

What about the “Actual Titrated Concentration (ppm POAA)” value ([2]; 90% Fresh/10% Produced, desired 30 ppm POAA, 1 minutes) of the same compound?
Its value is 21 ppm.

What about the “Actual Titrated Concentration (ppm POAA)” value ([2]; 90% Fresh/10% Produced, desired 30 ppm POAA, 5 minutes) of the same compound?
The value was 8 ppm.

What about the “Actual Titrated Concentration (ppm POAA)” value ([2]; 90% Fresh/10% Produced, desired 40 ppm POAA, 1 minutes) of the same compound?
The value was 30 ppm.

What about the “Actual Titrated Concentration (ppm POAA)” value ([2]; 90% Fresh/10% Produced, desired 40 ppm POAA, 5 minutes) of the same compound?
The value was 16 ppm.

And the “Avg. Log10 Reduction” value (fracking water mixtures [3]; 75 ppm PAA holding tank pretreatment, 10% reuse H2O, 29 ppm POAA, no catalase, 2.5 minutes)?
Its value is 6.45 Log10.

And the “Avg. Log10 Reduction” value (fracking water mixtures [3]; 75 ppm PAA holding tank pretreatment, 10% reuse H2O, 29 ppm POAA, no catalase, 5 minutes)?
Its value is 6.71 Log10.

What about the “Avg. Log10 Reduction” value (fracking water mixtures [3]; 75 ppm PAA holding tank pretreatment, 20% reuse H2O, 47 ppm PAA, no catalase, 2.5 minutes) of the same compound?
Its value is 6.42 Log10.

And the “Avg. Log10 Reduction” value (fracking water mixtures [3]; 75 ppm PAA holding tank pretreatment, 20% reuse H2O, 47 ppm PAA, no catalase, 5 minutes)?
Its value is 6.55 Log10.

What about the “Avg. Log10 Reduction” value (fracking water mixtures [3]; 75 ppm PAA holding tank pretreatment, 30% reuse H2O, 86 ppm POAA, no catalase, 2.5 minutes) of the same compound?
Its value is 6.47 Log10.

What about the “Avg. Log10 Reduction” value (fracking water mixtures [3]; 75 ppm PAA holding tank pretreatment, 30% reuse H2O, 86 ppm POAA, no catalase, 5 minutes) of the same compound?
Its value is 6.41 Log10.

And the “Avg. Log10 Reduction” value (fracking water mixtures [3]; no holding tank pretreatment, 0% reuse H2O, 22 ppm POAA, 2.5 minutes)?
The value was 5.53 Log10.

What about the “Avg. Log10 Reduction” value (fracking water mixtures [3]; no holding tank pretreatment, 0% reuse H2O, 22 ppm POAA, 5 minutes) of the same compound?
Its value is 5.75 Log10.

What about the “Avg. Log10 Reduction” value (fracking water mixtures [3]; no holding tank pretreatment, 10% reuse H2O, 36 ppm POAA, 2.5 minutes) of the same compound?
The value was 4.32 Log10.

And the “Avg. Log10 Reduction” value (fracking water mixtures [3]; no holding tank pretreatment, 10% reuse H2O, 36 ppm POAA, 5 minutes)?
Its value is 4.72 Log10.

What about the “Avg. Log10 Reduction” value (fracking water mixtures [3]; no holding tank pretreatment, 20% reuse H2O, 86 ppm POAA, 2.5 minutes) of the same compound?
The value was 4.57 Log10.

And the “Avg. Log10 Reduction” value (fracking water mixtures [3]; no holding tank pretreatment, 20% reuse H2O, 86 ppm POAA, 5 minutes)?
Its value is 4.64 Log10.

What about the “Avg. Log10 Reduction” value (fracking water mixtures [3]; no holding tank pretreatment, 30% reuse H2O, 138 ppm POAA, 2.5 minutes) of the same compound?
The value was 4.12 Log10.

What about the “Avg. Log10 Reduction” value (fracking water mixtures [3]; no holding tank pretreatment, 30% reuse H2O, 138 ppm POAA, 5 minutes) of the same compound?
Its value is 5.00 Log10.

And the “Avg. Log10 Reduction” value ([4]; 0% reuse H2O, 2.5 minutes)?
The value was 4.64 Log10.

And the “Avg. Log10 Reduction” value ([4]; 0% reuse H2O, 5 minutes)?
Its value is 6.32 Log10.

And the “Avg. Log10 Reduction” value ([4]; 10% reuse H2O, 2.5 minutes)?
Its value is 3.09 Log10.

And the “Avg. Log10 Reduction” value ([4]; 10% reuse H2O, 5 minutes)?
Its value is 3.91 Log10.

What about the “Avg. Log10 Reduction” value ([4]; 20% reuse H2O, 2.5 minutes) of the same compound?
The value was 2.19 Log10.

And the “Avg. Log10 Reduction” value ([4]; 20% reuse H2O, 5 minutes)?
Its value is 2.38 Log10.

What about the “Avg. Log10 Reduction” value ([4]; 30% reuse H2O, 2.5 minutes) of the same compound?
Its value is 1.88 Log10.

And the “Avg. Log10 Reduction” value ([4]; 30% reuse H2O, 5 minutes)?
The value was 1.93 Log10.

Which results are given for catalase?
catalase concentration sufficient for treating the water source ([5]; ambient conditions): ~1 ppm; H2O2 (ppm) [5, 6]: 12.0 ppm; POAA (ppm) [5, 6]: 14.6 ppm; H2O2 (ppm) [5, 7]: 22.8 ppm; POAA (ppm) [5, 7]: 31.1 ppm; H2O2 (ppm) [5, 8]: 7.5 ppm; POAA (ppm) [5, 8]: 15.0 ppm; H2O2 (ppm) [5, 9]: 12.2 ppm; POAA (ppm) [5, 9]: 32.0 ppm; H2O2 (ppm) [5, 10]: 6.5 ppm; POAA (ppm) [5, 10]: 14.3 ppm; H2O2 (ppm) [5, 11]: 7.8 ppm; POAA (ppm) [5, 11]: 29.2 ppm; H2O2 (ppm) [5, 12]: 1.8 ppm; POAA (ppm) [5, 12]: 14.2 ppm; H2O2 (ppm) [5, 13]: 3.4 ppm; POAA (ppm) [5, 13]: 30.6 ppm; H2O2 (ppm) [5, 14]: 12.6 ppm; POAA (ppm) [5, 14]: 14.8 ppm; H2O2 (ppm) [5, 15]: 23.3 ppm; POAA (ppm) [5, 15]: 30.1 ppm; H2O2 (ppm) [5, 16]: 3.7 ppm; POAA (ppm) [5, 16]: 14.6 ppm; H2O2 (ppm) [5, 17]: 7.6 ppm; POAA (ppm) [5, 17]: 31.0 ppm; H2O2 (ppm) [5, 18]: 1.1 ppm; POAA (ppm) [5, 18]: 14.2 ppm; H2O2 (ppm) [5, 19]: 2.3 ppm; POAA (ppm) [5, 19]: 29.6 ppm; H2O2 (ppm) [5, 20]: 0.4 ppm; POAA (ppm) [5, 20]: 15.9 ppm; H2O2 (ppm) [5, 21]: 0.0 ppm; POAA (ppm) [5, 21]: 29.3 ppm; selectivity of catalase for H2O2 over POAA ([5]; tested ambient conditions): selectively decomposes the H2O2 without having any negative impact on POAA stability; lowest catalase concentration with which pond water with POAA and H2O2 could be treated ([5]; within 4 hours, ambient conditions): 0.5 ppm
